Data taken from PubChem BioAssay AID2839 (Southern Research Specialized Biocontainment Screening …, 2010).
Activity calls are given as the source filed them. No rule for the calls is given here.

What was measured:
[1] = tested on: Salmonella Typhi PhoP-promoter GFP reporter, low Mg2+, 4 h; assay: PhoP promoter GFP reporter reduction in Typhi – purified and synthesized compounds, set 2, PhoP regulon inhibitor project, dose response (AID 2839)
[2] = as above; conditions: Salmonella Typhi PhoP-promoter GFP reporter, low Mg2+, 4 h; at 150 µM (top of the series)

Row | SMILES | IC50 [1] | inhibition [2]
1 | COc1cccc(C2Sc3ccccc3NC3=C2C(=O)c2ccccc23)c1 (stereo not drawn) | 33.4 µM | 
2 | O=C1C2=C(Nc3ccccc3SC2c2ccco2)c2ccccc21 (stereo not drawn) | 16.8 µM | 
3 | CCCCCNC(=O)c1cn(CC)c2cc(N3CCN(C)CC3)c(F)cc2c1=O | < 0.15 µM | 
4 | O=C1c2ccccc2C2=Nc3ccccc3SC(c3ccccc3F)C12 (stereo not drawn) | < 0.15 µM | 
5 | O=S(=O)(Nc1c(S(=O)(=O)c2ccccc2)c2nc3ccccc3nc2n1C1CCCCC1)c1ccccc1 | < 0.15 µM | 
6 | O=c1c2ccccc2[nH]c2ccc(F)cc12 | < 0.15 µM | 
7 | CCn1cc(C(=O)O)c(=O)c2cc(F)c(N3CCN(C(=S)NCc4ccccc4)CC3)cc21 |  | 9.85% (inactive)
8 | Cc1cccc(NC(=S)NCc2ccc(Cl)cc2)c1 |  | 16.8% (inactive)
9 | O=C(Nc1ccc(Cl)cc1)N1CCCN(Cc2ccccc2F)C1 | 31.3 µM | 
10 | CN(C)CCCN(C(=O)CCc1ccccc1)c1nc2ccc(Cl)cc2s1 | < 0.15 µM | 
11 | COc1cccc(NC(=S)NCc2ccc(Cl)cc2)c1 |  | -3.63% (inactive)
12 | O=C(O)c1cn(-c2ccc(F)cc2)c2cc(Cl)c(F)cc2c1=O | < 0.15 µM | 
13 | COc1ccccc1NC(=O)N1CCCN(Cc2ccccc2F)C1 | 136 µM | 
14 | CCn1cc(C(=O)O)c(=O)c2cc(F)c(N3CCN(C(=S)Nc4ccc(Cl)cc4)CC3)cc21 | 60.8 µM | 
15 | O=C1C2=C(Nc3ccccc3SC2c2ccc(I)cc2)c2ccccc21 (stereo not drawn) | 3.67 µM | 
16 | Cc1ccc(CN2CCCN(C(=O)Nc3ccc(Cl)cc3)C2)cc1 | 46.2 µM | 
17 | O=C1C2=C(Nc3ccccc3SC2c2ccsc2)c2ccccc21 (stereo not drawn) | 34.5 µM | 
18 | O=C(Nc1ccccc1)N1CCCN(Cc2ccc(F)cc2)C1 | 72.2 µM | 
19 | CCn1cc(C(=O)O)c(=O)c2cc(F)c(N3CCN(C(=S)NC)CC3)cc21 |  | 4.25% (inactive)
20 | CCCCn1c(NS(=O)(=O)c2ccc(C)cc2)c(S(=O)(=O)c2ccccc2)c2nc3ccccc3nc21 | < 0.15 µM | 
21 | CN1CCc2nc(SCC(=O)Nc3cccc(F)c3)c(C#N)c(-c3cccs3)c2C1 | 0.05 µM | 
22 | N#C/C(=C\c1ccc[nH]1)C(=O)NC1CC1 | 60.4 µM | 
23 | CCn1cc(C(=O)O)c(=O)c2cc(F)c(N3CCN(C(=S)NC(=O)c4ccccc4F)CC3)cc21 | 95.9 µM | 
24 | S=C(NCc1ccc(Cl)cc1)Nc1cccnc1 |  | -36.6% (inactive)
25 | COc1ccc(NC(=S)NCc2ccc(Cl)cc2)cc1 |  | 8.24% (inactive)
26 | COc1c(N2CCN(C(=S)NCc3ccccc3)C(C)C2)c(F)cc2c(=O)c(C(=O)O)cn(C3CC3)c12 (stereo not drawn) | 79.1 µM | 
27 | CCCCn1c(NS(=O)(=O)c2ccccc2)c(S(=O)(=O)c2ccc(C)cc2)c2nc3ccccc3nc21 | < 0.15 µM | 

Row | SMILES | IC50 [1] | inhibition [2]
28 | COc1ccc(CNC(=S)Nc2ccncc2)cc1 | 48.1 µM | 
29 | O=C1C2=C(Nc3ccccc3SC2c2ccccc2C(F)(F)F)c2ccccc21 (stereo not drawn) |  | 7.29% (inactive)
30 | S=C(NCc1ccc(Cl)cc1)Nc1ccc(Cl)cc1 |  | 22.4% (inactive)
31 | O=C(Nc1ccccc1)N1CCCN(Cc2ccccc2F)C1 |  | 28.7% (inactive)
32 | O=C(Nc1ccccc1Cl)N1CCCN(Cc2ccccc2F)C1 |  | 16.8% (inactive)
33 | O=C(Nc1cccnc1)c1cc(Br)c(Br)s1 | < 0.15 µM | 
34 | CCn1cc(C(=O)O)c(=O)c2cc(F)c(N3CCN(C(=S)NC(=O)c4ccccc4Cl)CC3)cc21 | 20.5 µM | 
35 | O=C1C2=C(Nc3ccccc3SC2c2ccc(C(F)(F)F)cc2)c2ccccc21 (stereo not drawn) | < 2.35 µM | 
36 | CCn1cc(C(=O)O)c(=O)c2cc(F)c(N3CCN(C(=S)Nc4ccccc4C(F)(F)F)CC3)cc21 | 24.1 µM | 
37 | COc1ccccc1Nc1nc(NCc2ccco2)c2ccccc2n1 | < 0.15 µM | 
38 | Cc1ccc(NC(=S)NCc2ccc(Cl)cc2)cc1 |  | 13.6% (inactive)
39 | CCOc1ccc(NC(=S)N2CCN(c3cc4c(cc3F)c(=O)c(C(=O)O)cn4CC)CC2)cc1 | 47.6 µM | 
40 | O=C(Nc1nnc(-c2cccs2)o1)c1cccc(C(F)(F)F)c1 | 80.1 µM | 
41 | O=C(NCc1ccccc1)N1CCCN(Cc2ccccc2F)C1 |  | 6.93% (inactive)
42 | S=C(NCc1ccccc1Cl)Nc1ccncc1 | 131 µM | 
43 | CN1CCN(C2=Cc3cc(Cl)ccc3Sc3cc(F)ccc32)CC1 | 53.7 µM | 
44 | S=C(NCc1ccc(Cl)cc1)Nc1ccc(Br)cc1 |  | 6.57% (inactive)
45 | S=C(NCc1ccc(Cl)cc1)Nc1cccc(Cl)c1 |  | 29.4% (inactive)
46 | S=C(NCc1ccc(Cl)cc1)Nc1ccncc1 | 15.9 µM | 
47 | C1=C(CCNc2ncnc3c2[nH]c2ccccc23)CCCC1 | 106 µM | 
48 | O=C(Nc1ccc(Cl)cc1)N1CCCN(Cc2ccc(F)cc2)C1 | 61.4 µM | 
49 | COc1ccc(NC(=O)c2cc(Br)c(Br)s2)cn1 | < 0.15 µM | 
50 | Fc1ccccc1NC(=S)NCc1ccc(Cl)cc1 |  | -0.65% (inactive)
51 | O=[N+]([O-])c1ccc(CNC2CCCc3ccccc32)cc1 (stereo not drawn) | 16.6 µM | 
52 | Cc1ccc(Nc2cc(C)c3c(O)cccc3n2)cc1C | 9.67 µM | 
53 | O=C(Nc1ccc(Br)cc1)N1CCCN(Cc2ccccc2F)C1 | 61.6 µM | 
